Reference: patent US12486231B2, “Targeted nitroxide compounds and their use in treating ferroptosis-related diseases” (University of Pittsburgh—Of the Commonwealth System of …, priority 2019, dated 2025)
Read-outs that look alike come from different tables or passages of the source.

Columns and labels:
HT-1080 cells = assay: Protection against Erastin-induced ferroptosis in HT-1080 cells (CellTiter-Glo); format: cell-based; details: for Erastin-induced ferroptosis in HT-1080 cells: % activity remaining at 1 μM / % Activity remaining (value at a concentration of 1 μM): compound 1 μM; for % Activity remaining (value at a concentration of 1 μM): relative to vehicle and Erastin samples
Method: Compounds 6c, 6e, 6f, and 6i, as described above, were tested at a concentration of 1 μM, yielding values of 6c (85%), 6e (80%), 6f (77%), 6g (16%), 6h (78%), 6i (57%), and 6j (83%). For comparison, JP4-039 yielded a value of 56%. […] Briefly, 200 μL of a 5,000 cell/mL solution of HT-1080 cells were incubated for 24 h at 37° C. at 5% CO2, 95% humidity. The compounds were dissolved in DMSO and diluted to desired testing concentration. Compounds (1 μL) were added to culture medium (1 mL) containing 10 μM Erastin and incubated at 37° C., 5% CO2, 95% humidity for 24 h. CellTiter-Glo® reagent was added and the plate was incubated for 20 min at rt, sealed, centrifuged (1 min) at 1,000 rpm, shaken (1 min), and read in Enspire. % Activity remaining was determined as a function of vehicle sample and Erastin sample.
B. Compounds 6a-6n were tested for their protection against Erastin-induced ferroptosis in HT-1080 cells. Briefly, 200 μL of a 5,000 cell/mL solution of HT-1080 cells were incubated for 24 h at 37° C. at 5% CO2, 95% humidity. The compounds were dissolved in DMSO and diluted to desired testing concentration. Compounds (1 μL) were added to culture medium (1 mL) containing 10 μM Erastin and incubated at 37° C., 5% CO2, 95% humidity for 24 h. CellTiter-Glo® reagent was added and the plate was incubated for 20 min at rt, sealed, centrifuged (1 min) at 1,000 rpm, shaken (1 min), and read in Enspire. % Activity remaining was determined as a function of vehicle sample and Erastin sample.

[1] = 10 μM Erastin, 24 h, HT-1080 cells
[2] = 10 μM Erastin, 24 h, HT-1080 cells, read-out: EC50

| Compound | logP (log P) | Erastin-induced ferroptosis in HT-1080 cells: % activity remaining at 1 μM (HT-1080 cells; [1]) | % Activity remaining (value at a concentration of 1 μM) (HT-1080 cells; [1]) | log P (log P) | also measured |
| --- | --- | --- | --- | --- | --- |
| CC(C)(C)OC(=O)N[C@@H](/C=C/CC(=O)NC1CC(C)(C)N([O])C(C)(C)C1)c1ccccc1 [6b, tert-Butyl (S,E)-(5-((1-oxy-2,2,6,6-tetramethylpiperidin-4-yl)amino)-5-oxo-1-phenylpent-2-en-1-yl)carbamate] | 2.92 | – | – | – | EC50 (HT-1080 cells; Homo sapiens, HT-1080, 24 h): 948 nM |
| CC(C)C[C@@H](/C=C/CNC(=O)C1CC(C)(C)N([O])C(C)(C)C1)NC(=O)OC(C)(C)C [6i, tert-Butyl (S,E)-(1-(1-oxy-2,2,6,6-tetramethylpiperidine-4-carboxamido)-6-methylhept-2-en-4-yl)carbamate] | 3.15 | 57% | 57% | – | – |
| CC(C)C[C@@H](/C=C/[C@H](Cc1ccccc1)C(=O)NC1CC(C)(C)N(O)C(C)(C)C1)NC(=O)OC(C)(C)C [6j, tert-Butyl ((4S,7S,E)-7-benzyl-8-((1-oxy-2,2,6,6-tetramethylpiperidin-4-yl)amino)-2-methyl-8-oxooct-5-en-4-yl)carbamate] | 4.93 | 83% | 83% | – | EC50 (HT-1080 cells; Homo sapiens, 10 μM Erastin, 24 h, HT-1080 cells, read-out: EC50): 207 nM; EC50 (HT-1080 cells; Homo sapiens, 10 μM Erastin, 24 h, HT-1080 cells, read-out: Erastin-induced ferroptosis in HT-1080 cells: EC50): 207 nM |
| CC(C)C[C@@H](/C=C/[C@H](Cc1ccc(F)cc1)C(=O)NC1CC(C)(C)N(O)C(C)(C)C1)NC(=O)OC(C)(C)C [6k, tert-Butyl ((4S,7S,E)-7-(4-fluorobenzyl)-8-((1-oxy-2,2,6,6-tetramethylpiperidin-4-yl)amino)-2-methyl-8-oxooct-5-en-4-yl)carbamate] | 5.09 | – | – | – | – |
| CC(C)CC(C=CCC(=O)NC1CC(C)(C)N([O])C(C)(C)C1)NC(=O)OC(C)(C)C [6l, tert-Butyl (S,Z)-(8-((1-oxy-2,2,6,6-tetramethylpiperidin-4-yl)amino)-2-methyl-8-oxooct-5-en-4-yl)carbamate] | – | – | – | 2.76 | – |
| CC(C)C[C@@H](CCCC(=O)NC1CC(C)(C)N([O])C(C)(C)C1)NC(=O)OC(C)(C)C [6m, tert-Butyl (R)-(8-((1-oxy-2,2,6,6-tetramethylpiperidin-4-yl)amino)-2-methyl-8-oxooctan-4-yl)carbamate] | 2.94 | – | – | – | – |
| CCCCCCCC(=O)NC1CC(C)(C)N([O])C(C)(C)C1 [6n, N-(1-Oxy-2,2,6,6-tetramethylpiperidin-4-yl)octanamide] | 2.83 | – | – | – | – |
| tert-Butyl (S,E)-(1-(1-((1-oxy-2,2,6,6-tetramethylpiperidin-4-yl)carbamoyl)cyclopentyl)-5-methylhex-1-en-3-yl)carbamate [6f] | – | 77% | 77% | 4.37 | – |
| tert-Butyl (S,E)-(1-(1-((1-oxy-2,2,6,6-tetramethylpiperidin-4-yl)carbamoyl)cyclopropyl)-5-methylhex-1-en-3-yl)carbamate [6e] | – | 80% | 80% | 3.53 | EC50 (HT-1080 cells; 10 μM Erastin, 24 h, HT-1080 cells, read-out: Erastin-induced ferroptosis in HT-1080 cells: EC50): 958 nM |
| tert-Butyl (S,E)-(1-(4-((1-oxy-2,2,6,6-tetramethylpiperidin-4-yl)carbamoyl)tetrahydro-2H-pyran-4-yl)-5-methylhex-1-en-3-yl)carbamate [6g] | – | 16% | 16% | 3.10 | – |
| tert-Butyl (S,E)-(5-((1-oxy-2,2,6,6-tetramethylpiperidin-4-yl)amino)-4,4-dimethyl-5-oxo-1-phenylpent-2-en-1-yl)carbamate [6a] | – | – | – | 4.19 | – |
| tert-Butyl (S,E)-(7,7-dibenzyl-8-((1-oxy-2,2,6,6-tetramethylpiperidin-4-yl)amino)-2-methyl-8-oxooct-5-en-4-yl)carbamate [6d] | – | 78% | – | 7.24 | EC50 (HT-1080 cells; [2]): 173 nM |
| tert-Butyl (S,E)-(7-(1-oxy-2,2,6,6-tetramethylpiperidine-4-carboxamido)-2,7-dimethyloct-5-en-4-yl)carbamate [6h] | – | 78% | 78% | 3.68 | EC50 (HT-1080 cells; [2]): 576 nM |
| tert-Butyl (S,E)-(8-((1-oxy-2,2,6,6-tetramethylpiperidin-4-yl)amino)-2,7,7-trimethyl-8-oxooct-5-en-4-yl)carbamate [6c] | – | 85% | 85% | 4.03 | – |
